Laboratory results: patent US20220378923A1, “BET DEGRADER” (KYOWA KIRIN CO., LTD., priority 2019, published 2022)
Blank lines part the entries; values can stand above or below the molecule they belong to.

Legend:
[1] = tested on: SU-DHL-4 subcutaneously transplanted tumor; experiment: Antitumor effect on subcutaneous transplant model in SCID mouse, DLBCL strain SU-DHL-4, compound 1a (Test Example 3); assay type: in vivo; settings: for T/C: V/V0 of group divided by vehicle group; for Body Weight / Tumor Volume (mm^3): male SCID mouse; for Body Weight / V/V0 (tumor growth rate) / Tumor Volume (mm^3): mean of n=5; for Tumor Volume (mm^3): compound 1a 3 mg/kg i.v. (tail vein) 5 times a week for 2 weeks
Description: cells of DLBCL strain SU-DHL-4 (Code No. ACC 495, Deutsche Sammlung von Mikroorganismen and Zellkulturen GmbH) suspended in a 1:1 mixed solution of PBS and matrigel (CORNING Code No. 354234) were transplanted subcutaneously to the ventral side of a male SCID mouse. Eighteen days after the transplantation, the body weight and the tumor diameter were measured, the tumor volume was calculated by the following formula, and the mice were divided into two groups (n=5) so that the average tumor volume of each group was equal.
(§1) [Tumor volume (mm^3)]=[Tumor long diameter (mm)]×[Tumor short diameter (mm)]^2×0.5
The test was conducted in two groups, a vehicle administration group and a compound 1a administration group (compound administration group). To the compound 1a administration group, a solution of compound 1a dissolved in 30% DMSO/3% Tween 80/physiological saline so as to give a final concentration of 0.6 mg/mL was administered intravenously (tail vein) at 5 mL/kg (3 mg/kg) 5 times a week for 2 weeks. To the vehicle administration group, 30% DMSO/3% Tween 80/physiological saline was administered intravenously (tail vein) at 5 mL/kg on the same schedule as the compound 1a administration group. After the start of the test, body weight and tumor diameter were measured twice a week. The tumor volume on each measurement day was calculated by the above formula. The tumor growth rate (hereinafter referred to as V/VO) was calculated by dividing the tumor volume V on each measurement day by the tumor volume VO on the test start day (Day 0). The T/C was calculated by dividing the average value (T) of V/VO of each group by the average value (C) of the vehicle administration group.

[2] = tested on: SU-DHL-4 subcutaneously transplanted tumor; experiment: Antitumor effect on subcutaneous transplant model in SCID mouse, DLBCL strain SU-DHL-4, compound 1b (Test Example 9); assay type: in vivo; settings: for Tumor Volume (mm^3): compound 1b 10 mg/kg i.v. (tail vein) once on the test start day; for Tumor Volume (mm^3) / Body Weight: male SCID mouse; for Tumor Volume (mm^3) / Body Weight / V/V0 (tumor growth rate): mean of n=5; for T/C: V/V0 of group divided by vehicle group
Description: 1×10^7 cells of DLBCL strain SU-DHL-4 (Code No. ACC 495, Deutsche Sammlung von Mikroorganismen and Zellkulturen GmbH) suspended in a 1:1 mixed solution of PBS and matrigel (CORNING Code No. 354234) were transplanted subcutaneously on the ventral side of male SCID mouse. 14 days after the transplantation, the body weight and tumor diameter were measured, the tumor volume was calculated by the following formula, and the mice were divided into two groups (n=5) so that the average tumor volume of each group was equal. E-workbook software (ID Business Solutions) was used for grouping and measurement.
as §1
To the compound 1b administration group, a solution of compound 1b dissolved in 30% DMSO/3% Tween 80/physiological saline so as to give a final concentration of 2 mg/mL was administered intravenously (tail vein) at 5 mL/kg (10 mg/kg) once on the test start day. To the vehicle administration group, 30% DMSO/3% Tween 80/physiological saline was administered intravenously (tail vein) at 5 mL/kg in the same schedule as in the compound 1b administration group. After the start of the test, body weight and tumor diameter were measured twice a week. The tumor volume on each measurement day was calculated by the above formula. The tumor growth rate (hereinafter referred to as V/VO) was calculated by dividing the tumor volume V on each measurement day by the tumor volume VO on the test start date (Day 0). The T/C was calculated by dividing the average value (T) of V/VO of each group by the average value (C) of the vehicle administration group.

[3] = Day 0, compound 1a 3 mg/kg i.v. 5 times a week for 2 weeks
[4] = Day 3, compound 1a 3 mg/kg i.v. 5 times a week for 2 weeks
[5] = Day 7, compound 1a 3 mg/kg i.v. 5 times a week for 2 weeks
[6] = Day 10, compound 1a 3 mg/kg i.v. 5 times a week for 2 weeks
[7] = Day 14, compound 1a 3 mg/kg i.v. 5 times a week for 2 weeks
[8] = Day 18, compound 1a 3 mg/kg i.v. 5 times a week for 2 weeks
[9] = compound 1a 3 mg/kg i.v. 5 times a week for 2 weeks, SCID mouse
[10] = Day 0, compound 1b 10 mg/kg i.v. once
[11] = Day 4, compound 1b 10 mg/kg i.v. once
[12] = Day 7, compound 1b 10 mg/kg i.v. once
[13] = Day 10, compound 1b 10 mg/kg i.v. once
[14] = Day 14, compound 1b 10 mg/kg i.v. once
[15] = Day 17, compound 1b 10 mg/kg i.v. once
[16] = compound 1b 10 mg/kg i.v. once, SCID mouse

weight loss [1, 9]: no weight loss was observed
Structure (SMILES): CCC(=O)N1c2ccccc2[C@H](Nc2ccc(C(=O)NCCCNC(=O)c3ccc(N[C@@H]4C[C@H](C)N(C(=O)CC)c5ccccc54)cc3)cc2)C[C@@H]1C (relative stereo) [Compound 1a, N,N′-(Propane-1,3-diyl)bis(4-{[(2S*,4R*)-2-methyl-1-propionyl-1,2,3,4-tetrahydroquinolin-4-yl]amino}benzamide)]
T/C [1, 3]: 1.00
Body Weight [1, 3]: 24.56 g
V/V0 (tumor growth rate) [1, 3]: 1.00
Tumor Volume (mm^3) ([1]; Day 0): 246.14 mm^3
T/C [1, 4]: 0.71
Body Weight [1, 4]: 25.36 g
V/V0 (tumor growth rate) [1, 4]: 1.15
Tumor Volume (mm^3) ([1]; Day 3): 284.29 mm^3
T/C [1, 5]: 0.48
Body Weight [1, 5]: 25.44 g
V/V0 (tumor growth rate) [1, 5]: 1.29
Tumor Volume (mm^3) ([1]; Day 7): 326.25 mm^3
T/C [1, 6]: 0.22
Body Weight [1, 6]: 25.14 g
V/V0 (tumor growth rate) [1, 6]: 0.85
Tumor Volume (mm^3) ([1]; Day 10): 214.74 mm^3
T/C [1, 7]: 0.17
Body Weight [1, 7]: 25.74 g
V/V0 (tumor growth rate) [1, 7]: 0.89
Tumor Volume (mm^3) ([1]; Day 14): 224.55 mm^3
T/C [1, 8]: 0.16
Body Weight [1, 8]: 26.23 g
V/V0 (tumor growth rate) [1, 8]: 1.30
Tumor Volume (mm^3) ([1]; Day 18): 325.61 mm^3
antitumor effect on SU-DHL-4 subcutaneously transplanted tumor [1, 9]: potent antitumor effect

weight loss [2, 16]: no weight loss was observed
Structure (SMILES): Cc1sc2c(c1C)C(c1ccc(C(=O)NCCCNC(=O)c3ccc(C4=N[C@@H](CC(=O)OC(C)(C)C)c5nnc(C)n5-c5sc(C)c(C)c54)cc3)cc1)=N[C@@H](CC(=O)OC(C)(C)C)c1nnc(C)n1-2 [Compound 1b, Di-tert-butyl 2,2′-[(6S,6′S)-({[propane-1,3-diylbis(azanediyl)]bis(carbonyl)}bis(4,1-phenylene))bis(2,3,9-trimethyl-6H-thieno[3,2-f][1,2,4]triazolo[4,3-a][1,4]diazepine-4,6-diyl)]diacetate]
Tumor Volume (mm^3) ([2]; Day 0): 208 mm^3
T/C [2, 10]: 1.00
Body Weight [2, 10]: 25 g
V/V0 (tumor growth rate) [2, 10]: 1.00
Tumor Volume (mm^3) ([2]; Day 4): 101 mm^3
T/C [2, 11]: 0.31
Body Weight [2, 11]: 25 g
V/V0 (tumor growth rate) [2, 11]: 0.49
Tumor Volume (mm^3) ([2]; Day 7): 49 mm^3
T/C [2, 12]: 0.12
Body Weight [2, 12]: 25 g
V/V0 (tumor growth rate) [2, 12]: 0.24
Tumor Volume (mm^3) ([2]; Day 10): 66 mm^3
T/C [2, 13]: 0.11
Body Weight [2, 13]: 26 g
V/V0 (tumor growth rate) [2, 13]: 0.32
Tumor Volume (mm^3) ([2]; Day 14): 87 mm^3
T/C [2, 14]: 0.12
Body Weight [2, 14]: 26 g
V/V0 (tumor growth rate) [2, 14]: 0.42
Tumor Volume (mm^3) ([2]; Day 17): 122 mm^3
T/C [2, 15]: 0.13
Body Weight [2, 15]: 27 g
V/V0 (tumor growth rate) [2, 15]: 0.59
antitumor effect on SU-DHL-4 subcutaneously transplanted tumor [2, 16]: potent antitumor effect
